US11384312B2, “Fragrance compositions and methods of use thereof” (TAKASAGO INTERNATIONAL CORPORATION, priority 2016, dated 2022)

Columns and labels:
salivary cortisol = experiment: Timed mathematical and word stress test in panelists exposed to fragrance compound; salivary cortisol before vs after stress; assay type: in vivo, human; conditions: panelists' saliva, before vs immediately after stress test; single fragrance compound in DPG solvent; DPG control 10.8%
Protocol: (§1) Stress was induced in each panelist using a timed mathematical and word test, which was administered to panelists in a small group competition setting to induce stress in each of the panelists. At set time intervals during the test, each panelist was exposed to either a single fragrance compound or to a DPG control.
(§2) Saliva was collected for each panelist before and immediately after the stress test. Saliva samples were assayed for salivary alpha-amylase activity and salivary cortisol levels using a commercially available assay kit (e.g., Salimetrics).
(§3) Table 1-B summarizes the percent change (i.e., before stress versus after stress) in the salivary cortisol levels of panelists exposed to fragrance compounds of the present disclosure during the stress test. In addition, the table illustrates the statistical significance of the change in salivary cortisol levels (i.e., p-value or probability value, P) of each of the fragrance compounds as compared to DPG, representing the change in the control (i.e., just DPG without a fragrance compound before stress and after stress).

salivary alpha-amylase = experiment: Timed mathematical and word stress test in panelists exposed to fragrance compound; salivary alpha-amylase before vs after stress; assay type: in vivo, human; conditions: panelists' saliva, before vs immediately after stress test; single fragrance compound in DPG solvent; DPG control 51.9%
Protocol: as §1, §2
as §3, with “Table 1-A” for “Table 1-B”, “salivary alpha-amylase” for “salivary cortisol”, “in alpha-amylase” for “in salivary cortisol”

Compound | % Change in Cortisol (i.e., before versus after stress) (salivary cortisol) [%] | % Change in Alpha-amylase (i.e., before versus after stress) (salivary alpha-amylase) [%]
CC1(O)CCC2C(=CCCC2(C)C)C1 (stereo not shown) [2,5,5-trimethyl-1,3,4,4a,6,7-hexahydronaphthalen-2-ol] | 30.0 | 5.1
CC(=O)C1(C)CC2=C(CCCC2(C)C)CC1C (stereo not shown) [1-(1,2,3,4,5,6,7,8-octahydro-2,3,8,8,-tetramethyl-2-naphthyl)ethan-1-one] | −11.9 | −2.5
C=CC(C)CCC=C(C)C (stereo not shown) [Dihyrdomyrcene] | −8.1 | 23.6
CC(C=O)Cc1ccc(C(C)C)cc1 (stereo not shown) [3-(4-isopropylphenyl)-2-methylpropanal] | 17.73 | 4.8
CC(C)(C)C1CCC(=O)C(C(C)(C)C)C1 (stereo not shown) [2,4-di(tert-butyl)-cyclohexan-1-one] | 8.3 | 10.9
CC(=O)O[C@@H]1C[C@@H]2CC[C@@]1(C)C2(C)C [Bornyl Acetate, L] | −13.0 | 27.1
COC(=O)OC1CCC=CCCC1 (stereo not shown) [1-cyclooct-4-enyl methyl carbonate] | 3.5 | 15.2
CC(C)=CCCC(C)CCO (stereo not shown) [Citronellol] | 3.4 | 1.2
CC12CCC(CC1=O)C2(C)C (stereo not shown) [Camphor] | −2.2 | −11.6
CC(C)=CCCC(C)=CC=O [Citral] | −2.8 | 7.5
C=CC(=C)CCCC(C)(C)OC(C)=O [Myrcenyl Acetate] | −6.9 | 15.8
CC(C)=CCCC(C)CC=O (stereo not shown) [Citronellal] | 16.8 | 4.9
(1,7,7-trimethylbicyclo[2.2.1]hept-2-yl)-cyclohexanol | 1.0 | 3.8
CC(=O)OC1CCCCC1C(C)(C)C (stereo not shown) [2-tert-butylcyclohexyl acetate] | −14.2 | −4.3
CC1(C)CCC[C@]2(C)[C@H]3CCO[C@]3(C)CC[C@@H]12 [Ambroxide] | 1.1 | −12.2
C=CC(C)CCCC(C)(C)OC(C)=O (stereo not shown) [Dihydromyrcenyl Acetate] | −13.3 | −3.9
CC12CCC(CC1)C(C)(C)O2 [Eucalyptol] | −12.87 | −11.1
